# Laboratory results reported in PMC7216583 (Parasites & Vectors, 2020).
# Counter-ions that a name gives are not always drawn. Like-named read-outs stand apart in the source and are kept apart here.
# Experiments:
# Syk = system: Syk; parameters: method as in S-inhibitor; details: ref S-inhibitor; cited from earlier work
# HSP90 = details: ref library vendor description, cited from earlier work
# [1] = system: Toxoplasma gondii RH-2F tachyzoites; test: microbe, parasite or virus in culture; details: 72 h
# Aurora B = system: Aurora B; parameters: method as in S-inhibitor catalog; details: vendor brief description; ref S-inhibitor catalog; cited from earlier work
# in vitro = details: human; for viability at 72 h: Host viability (%) mean
# Aurora C [2] = system: Aurora C; parameters: method as in S-inhibitor catalog; details: vendor brief description; ref S-inhibitor catalog; cited from earlier work
# mTOR = system: mTOR; parameters: method as in S-inhibitor; details: ref S-inhibitor; cited from earlier work
# HIV protease = molecular target: HIV protease; parameters: method as in S-inhibitor; details: ref S-inhibitor; cited from earlier work
# Aurora A = system: Aurora A; parameters: method as in S-inhibitor; details: ref S-inhibitor; cited from earlier work
# c-Met = system: c-Met; parameters: method as in S-inhibitor; details: ref S-inhibitor; cited from earlier work
# VEGFR2 [3] = system: VEGFR2; parameters: method as in S-inhibitor; details: ref S-inhibitor; cited from earlier work
# CDK7 = system: CDK7; parameters: method as in S-inhibitor; details: ref S-inhibitor; cited from earlier work
# PDK-1 = system: PDK-1; parameters: method as in library vendor description; details: ref library vendor description, cited from earlier work
# PDGFRβ [4] = system: PDGFRβ; parameters: method as in S-inhibitor; details: ref S-inhibitor; cited from earlier work
# Flt1 = system: Flt1; parameters: method as in library vendor description; details: ref library vendor description; cited from earlier work
# VEGFR2 [5] = system: VEGFR2; parameters: method as in library vendor description; details: ref library vendor description; cited from earlier work
# Flt4 = system: Flt4; parameters: method as in library vendor description; details: ref library vendor description; cited from earlier work
# Aurora C [6] = system: Aurora C; parameters: method as in library vendor description; details: ref library vendor description; cited from earlier work
# Ret = system: Ret; parameters: method as in library vendor description; details: ref library vendor description; cited from earlier work
# VEGFR3 = system: VEGFR3; parameters: method as in library vendor description; details: ref library vendor description; cited from earlier work
# PDGFRβ [7] = system: PDGFRβ; parameters: method as in library vendor description; details: ref library vendor description; cited from earlier work
# PI3Kδ = system: PI3Kδ; parameters: method as in library vendor description; details: ref library vendor description; cited from earlier work
# HDAC = system: HDAC; parameters: method as in S-inhibitor; details: ref S-inhibitor; cited from earlier work
# HDAC8 = system: HDAC8; parameters: method as in S-inhibitor; details: ref S-inhibitor; cited from earlier work
# EGFR = system: EGFR; parameters: method as in library vendor description; details: ref library vendor description; cited from earlier work
# FGFR1 = system: FGFR1; parameters: method as in library vendor description; details: ref library vendor description; cited from earlier work
# S6K1 = system: S6K1; parameters: method as in S-inhibitor; details: ref S-inhibitor; cited from earlier work
# c-Kit = system: c-Kit; parameters: method as in library vendor description; details: ref library vendor description; cited from earlier work
# VEGFR1 = system: VEGFR1; parameters: method as in library vendor description; details: ref library vendor description; cited from earlier work
# OX1 = molecular target: OX1; parameters: method as in S-inhibitor; details: ref S-inhibitor, cited from earlier work
# [8] = system: Toxoplasma gondii RH-2F tachyzoites; details: 5 μM, 72 h
# p110β = system: p110β; parameters: method as in S-inhibitor; details: ref S-inhibitor; cited from earlier work
# p110γ = system: p110γ; parameters: method as in S-inhibitor; details: ref S-inhibitor; cited from earlier work
# CCR5 = details: ref S-inhibitor, cited from earlier work
# [9] = read-out: Parasite inhibition (%) mean, preliminary screen, mean
# [10] = read-out: Parasite inhibition (%) mean, preliminary screen of compound library, mean
compound,measurement,setting,value
CO[C@H]1/C=C\C=C(\C)C(=O)NC2=CC(=O)C(NCCN(C)C)=C(C[C@@H](C)C[C@H](OC)[C@H](O)[C@@H](C)/C=C(\C)[C@@H]1OC(N)=O)C2=O [17-DMAG HCl (Alvespimycin)],IC50,HSP90; read-out: IC50 HSP90,62 nM
same,inhibition of growth at 5 µM,[1]; [9],4.3%
Cc1csc(-c2nnc(Nc3ccc(Oc4ncccc4-c4ccnc(N)n4)cc3)c3ccccc23)c1 [AMG 900],IC50,Aurora B,4 nM
same,viability at 72 h,in vitro,33.6%
same,IC50,Aurora C [2],1 nM
same,inhibition of growth at 5 µM,[1]; [10],85.9%
COc1ccc(-c2ccc3c(N4CCOC[C@@H]4C)nc(N4CCOC[C@@H]4C)nc3n2)cc1CO [AZD8055],IC50,mTOR,0.8 nM
same,inhibition of growth at 5 µM,[1]; [9],45.7%
COC(=O)N[C@H](C(=O)N[C@@H](Cc1ccccc1)[C@@H](O)CN(Cc1ccc(-c2ccccn2)cc1)NC(=O)[C@@H](NC(=O)OC)C(C)(C)C)C(C)(C)C [Atazanavir sulfate],viability,in vitro,90.7%
same,Ki,HIV protease,2.66 nM
same,inhibition of growth at 5 µM,[1]; [9],93.6%
CCN1CCN(C(=O)Cc2ccc(Nc3ncc(F)c(Nc4ccc(C(=O)Nc5ccccc5Cl)cc4)n3)cc2)CC1 [Aurora A Inhibitor I],inhibition of growth at 5 µM,[1]; [9],60.8%
same,IC50,Aurora A,3.4 nM
COc1c(C)cnc(Cn2cnc3c(Cl)nc(N)nc32)c1C [BIIB021],EC50,HSP90; read-out: EC50 HSP90,[…]
same,inhibition of growth at 5 µM,[1]; [9],3.5%
Nc1nccc(Oc2ccc(NC(=O)c3c[nH]cc(-c4ccc(F)cc4)c3=O)cc2F)c1Cl [BMS 794833],viability at 72 h,in vitro,70.6%
same,IC50,c-Met,1.7 nM
same,inhibition of growth at 5 µM,[1]; [9],88.4%
same,IC50,VEGFR2 [3],15 nM
CC(C)c1cnn2c(NCc3ccccc3)cc(NCCCCCCN)nc12 [BS-181 HCl],IC50,CDK7,21 nM
same,inhibition of growth at 5 µM,[1]; [9],5.7%
O=C(Nc1cccc(Nc2ncc(Br)c(NCCc3cnc[nH]3)n2)c1)N1CCCC1 [BX-912],inhibition of growth at 5 µM,[1]; [9],1.4%
same,IC50,PDK-1; read-out: IC50 PDK-1,12 nM
Cc1cc(CN2CCN(c3c(Br)cnc4[nH]c(-c5ccc(N6CCN(C)CC6)cc5)nc34)CC2)no1 [CCT137690],IC50,Aurora B,25 nM
same,viability at 72 h,in vitro,78.6%
same,IC50,Aurora C [2],19 nM
same,inhibition of growth at 5 µM,[1]; [10],86.1%
COCCOc1ccc2c(c1)ncn2-c1ccc2cccc(N3CCC(N)CC3)c2n1 [CP 673451],IC50,PDGFRβ [4],1 nM
same,inhibition of growth at 5 µM,[1]; [9],-13.8%
COc1cc2c(Oc3ccc4[nH]c(C)cc4c3F)ncnc2cc1OCCCN1CCCC1 [Cediranib (AZD2171)],IC50,Flt1,5 nM
same,IC50,VEGFR2 [5],0.5 nM
same,IC50,Flt4,≤ 3 nM
same,inhibition of growth at 5 µM,[1]; [9],0.4%
CO[C@@H](C(=O)N1Cc2n[nH]c(NC(=O)c3ccc(N4CCN(C)CC4)cc3)c2C1)c1ccccc1 [Danusertib (PHA-739358)],IC50,Aurora C [6],61 nM
same,viability at 72 h,in vitro,78.8%
same,inhibition of growth at 5 µM,[1]; [9],77.5%
same,IC50,Ret,31 nM
CN1CCN(c2ccc3nc(-c4c(N)c5c(F)cccc5[nH]c4=O)[nH]c3c2)CC1 [Dovitinib (TKI-258)],IC50,VEGFR3,[…]
same,IC50,PDGFRβ [7],27 nM
same,inhibition of growth at 5 µM,[1]; read-out: Parasite inhibition (%) mean,-12.9%
COc1cc2nccc(Oc3ccc(NC(=O)NC4CC4)c(Cl)c3)c2cc1C(N)=O [E7080 (Lenvatinib)],IC50,VEGFR3,5.2 nM
same,viability at 72 h,in vitro,52.1%
same,IC50,VEGFR2 [5],4 nM
same,inhibition of growth at 5 µM,[1]; [9],84.1%
Cc1cc(Nc2cc(N3CCN(C)CC3)nc(/C=C/c3ccccc3)n2)n[nH]1 [ENMD-2076],viability at 72 h,in vitro,66.6%
same,IC50,Flt4,15.9 nM
same,inhibition of growth at 5 µM,[1]; [9],74.7%
CCn1cc(-c2ccnc3[nH]c(-c4cccc(CN(C)C)c4)cc23)c(-c2ccc(NC(=O)N(C)C)cc2)n1 [GSK1070916],viability at 72 h,in vitro,67.7%
same,IC50,Aurora C [2],6.5 nM
same,inhibition of growth at 5 µM,[1]; [10],79.9%
Cc1ccccc1-n1c(Cn2cnc3c(N)ncnc32)nc2cccc(C)c2c1=O [IC-87114],IC50,PI3Kδ,[…]
same,inhibition of growth at 5 µM,[1]; [9],11.1%
CCN(CC)Cc1ccc2cc(COC(=O)Nc3ccc(C(=O)NO)cc3)ccc2c1 [ITF2357 (Givinostat)],inhibition of growth at 5 µM,[1]; [9],62.2%
same,IC50,HDAC,7.5 to 16 nM
Cc1cccc(C)c1OCC(=O)N[C@@H](Cc1ccccc1)[C@@H](O)C[C@H](Cc1ccccc1)NC(=O)[C@H](C(C)C)N1CCCNC1=O [Lopinavir (ABT-378)],Ki,HIV protease,0.0013 nM
same,inhibition of growth at 5 µM,[1]; [9],0.9%
Cn1cc(/C=C/C(=O)c2cccc(F)c2)cc1/C=C/C(=O)NO [MC1568],inhibition of growth at 5 µM,[1]; [9],35.4%
same,IC50,HDAC,220 nM
Cc1ccc(NC(=O)c2ccc(CN3CCN(C)CC3)cc2)cc1Nc1nc(-c2cccnc2)cs1 [Masitinib (AB1010)],IC50,PDGFRβ [7],[…]
same,inhibition of growth at 5 µM,[1]; [9],10.5%
NCC(=O)Nc1ccc(-n2nc(C(F)(F)F)cc2-c2ccc3c(ccc4ccccc43)c2)cc1 [OSU-03012 (AR-12)],inhibition of growth at 5 µM,[1]; [9],5.4%
same,IC50,"PDK-1; recombinant PDK-1, read-out: IC50 recombinant PDK-1",5000 nM
COc1ccc(Cn2ccc3ccc(C(=O)NO)cc32)cc1 [PCI-34051],IC50,HDAC8,10 nM
same,inhibition of growth at 5 µM,[1]; [9],5.7%
COc1cc2ncnc(Nc3cccc(Br)c3)c2cc1OC [PD153035 HCl],IC50,EGFR,[…]
same,inhibition of growth at 5 µM,[1]; [9],-9.7%
CCN(CC)CCCCNc1ncc2cc(-c3cc(OC)cc(OC)c3)c(NC(=O)NC(C)(C)C)nc2n1 [PD173074],viability at 72 h,in vitro,58.8%
same,IC50,VEGFR2 [5],100 to 200 nM
same,inhibition of growth at 5 µM,[1]; [9],76.8%
CCc1cncnc1N1CCN(Cc2nc3cc(C(F)(F)F)ccc3[nH]2)CC1 [PF-4708671],inhibition of growth at 5 µM,[1]; [9],60.6%
same,IC50,S6K1,160 nM
same,Ki,S6K1,20 nM
COc1cc(Nc2ncc(F)c(Nc3ccc4c(n3)NC(=O)C(C)(C)O4)n2)cc(OC)c1OC [R406 (free base)],IC50,Syk,41 nM
CNC(=O)c1cc(Oc2ccc(NC(=O)Nc3ccc(Cl)c(C(F)(F)F)c3)c(F)c2)ccn1 [Regorafenib (BAY 73-4506)],IC50,c-Kit,7 nM
same,viability at 72 h,in vitro,68.2%
same,inhibition of growth at 5 µM,[1]; [9],76.7%
same,IC50,Ret,1.5 nM
CCCCc1nc2cc(/C=C/C(=O)NO)ccc2n1CCN(CC)CC [SB939 (Pracinostat)],inhibition of growth at 5 µM,[1]; [9],34.6%
same,IC50,HDAC,40 to 140 nM
"Cc1cc(NC(=O)Nc2ccc(N(C)C)cc2)c2cc(F)cc(F)c2n1 [SB-408124, reference compound]",Ki,OX1; membrane,27 nM
same,Ki,OX1; whole cell,57 nM
same,inhibition of growth at 5 µM,[1]; [9],-80.4%
same,effect on T. gondii growth in the screen,[8],no effect on T. gondii growth
O=C(Nc1cccc(Cl)c1)Nc1ncc(CCNc2ncnc3ccsc23)s1 [SNS-314 Mesylate],IC50,Aurora C [6],3.4 nM
same,viability at 72 h,in vitro,32.9%
same,inhibition of growth at 5 µM,[1]; [9],79.4%
CCN(CC)CCNC(=O)c1c(C)[nH]c(/C=C2\C(=O)Nc3ccc(F)cc32)c1C [Sunitinib Malate (Sutent)],IC50,PDGFRβ [7],[…]
same,inhibition of growth at 5 µM,[1]; [9],7.5%
Clc1ccc(Nc2nnc(Cc3ccncc3)c3ccccc23)cc1 [Vatalanib 2HCl (PTK787)],IC50,c-Kit,730 nM
same,inhibition of growth at 5 µM,[1]; [9],-6.6%
COc1cc(Nc2nc3ccccc3nc2NS(=O)(=O)c2ccc(NC(=O)c3ccc(C)c(OC)c3)cc2)cc(OC)c1 [XL765 (SAR245409)],IC50,mTOR,157 nM
same,IC50,p110β,113 nM
same,inhibition of growth at 5 µM,[1]; [9],46.6%
same,IC50,p110γ,9 nM
Maraviroc,IC50,"CCR5; read-out: IC50, CCR5, MIP-1α, MIP-1α",3.3 nM
same,IC50,"CCR5; read-out: IC50, CCR5, MIP-1β, MIP-1β",7.2 nM
same,IC50,"CCR5; read-out: IC50, CCR5, RANTES, RANTES",5.2 nM
